The text below walks through data of patent US12398155B2, “Thienopyridinone compounds” (Janssen Pharmaceutica NV, priority 2019, dated 2025).

Experiment [1] concerns the target T1, NIH/3T3 cells overexpressing FGFR3 WT-TACC3 fusion protein (Homo sapiens, UniProt P22607).
T1 construct: NIH/3T3 FGFR3 WT-TACC3 CTG; other: 72-hr incubation, CellTiter Glo; fused on or other part: C-terminal part of TACC3 (coiled-coil) fused behind the FGFR3 kinase domain; Q9Y6A5 (Transforming acidic coiled-coil-containing protein 3)
As to the kind of experiment: NIH/3T3 FGFR3 WT-TACC3 cell proliferation assay. The following applies: 72-hr incubation, CellTiter Glo; read-out: NIH/3T3 FGFR3 WT-TACC3 CTG. Format: cell-based. On the procedure: NIH/3T3 FGFR3 WT-TACC3 Cell Proliferation Assay
(§1) In day 1, 90 μL of cell suspension (NIH/3T3 cells overexpressing FGFR3 WT-TACC3 fusion protein) (total 30,000 cells per well in growth medium (DMEM containing 1% Glutamax, 10% FBS and 1% Pen/Strep)) was seeded in a 96-well plate and then incubated overnight at 37° C. and 5% CO2. In day 2, 10 μL of growth medium containing 10-fold stock solution of testing compound was added into cell cultures (9 dose points with 4× serial dilution, starting with 10 μM, 0.1% DMSO final). After 72-hr incubation at 37° C. and 5% CO2, in day 5 a volume of 50 μL CellTiter Glo (CTG) reagent was added into cell-containing 96-well plate and the plate was incubated at room temperature for 10 minutes before RLUs (relative light unit) were measured on a microplate reader with luminescence detection module. The RLU value was normalized to survival % and concentration-response curve was plotted using Prism to calculate IC50 (M), pIC50 (−log IC50) and HillSlope value.

For experiment [2], the target named is T2, human FGFR3 wild type enzyme (cytoplasmic domain) (Homo sapiens, UniProt P22607).
T2 construct: human FGFR3 wild type enzyme (cytoplasmic domain, from Cama Biosciences); purchased Cama Biosciences (so in the source)
As to the kind of experiment: FGFR3 wild type mobility shift assay (enzymatic assay). The format is biochemical. Conditions: 75 μM ATP, 50 minutes at 30° C.; read-out: FGFR3 wild type Caliper. On the procedure:
FGFR3 Wild Type Mobility Shift Assay (Enzymatic Assay)
(§2) In a final reaction volume of 25 μL, 0.04 ng/μL human FGFR3 wild type enzyme (cytoplasmic domain, from Cama Biosciences) was incubated with 75 μM ATP, 1 μM FL-peptide 30 substrate and 250 nL of testing compound (1% DMSO final) in assay buffer (100 mM HEPES pH 7.4, 10 mM MgCl2, 0.003% Brij35, 1 mM DTT). After incubation for 50 minutes at 30° C. the reaction was stopped with 10 μL of 0.5M EDTA pH 8.0, and then 25 μL of reaction mixture was transferred to reading plate and measured on Caliper EZ reader II. The substrate-product conversion rate was used as raw data for normalization and concentration-response curve (10 dose points with 4× serial dilution, starting with 10 μM) was plotted using Prism to calculate IC50 (M), pIC50 (−log IC50) and HillSlope value.

For experiment [3], the target named is T3, human FGFR3 V555M enzyme (cytoplasmic domain carrying V555M mutation) (Homo sapiens, UniProt P22607, V555M).
T3 construct: cytoplasmic domain carrying V555M mutation, from Cama Biosciences; purchased Cama Biosciences (so in the source)
As to the kind of experiment: FGFR3 V555M mobility shift assay (enzymatic assay). The format is biochemical. Conditions: 30 μM ATP, 45 minutes at 30° C.; read-out: FGFR3 V555M Caliper. On the procedure:
FGFR3 V555M Mobility Shift Assay (Enzymatic Assay)
as §2, with “FGFR3 V555M” for “FGFR3 wild type”, “(cytoplasmic domain carrying V555M mutation,” for “(cytoplasmic domain,”, “with 30” for “with 75”, “for 45” for “for 50”

Experiment [4] relates to NIH/3T3 cells transfected with control vector. The experiment is described as follows: NIH/3T3 mock cell proliferation assay (counter assay, general toxicity). The format is cell-based. Conditions: Mus musculus, NIH3T3; 72-hr incubation, CellTiter Glo; read-out: NIH/3T3 MOCK CTG. On the procedure: NIH/3T3 Mock Cell Proliferation Assay
as §1, with “cells transfected with the same control vector as in the above two proliferation assays)” for “cells overexpressing FGFR3 WT-TACC3 fusion protein)”, “with 3×” for “with 4×”, “with 30” for “with 10”, “μM, 0.3%” for “μM, 0.1%”
A general note: Cellular ATP, detected with luciferase, serves as a proxy for viable cell number.

Experiment [5] addresses T4, NIH/3T3 cells overexpressing FGFR3 V555M-TACC3 fusion protein (Homo sapiens, UniProt P22607, V555M, cells depend on it).
T4 construct: NIH/3T3 FGFR3 V555M-TACC3 CTG; other: 72-hr incubation, CellTiter Glo; fused on or other part: C-terminal part of TACC3 (coiled-coil) fused behind the FGFR3 kinase domain; Q9Y6A5 (Transforming acidic coiled-coil-containing protein 3)
The experiment is described as follows: NIH/3T3 FGFR3 V555M-TACC3 cell proliferation assay. Format: cell-based. The following applies: 72-hr incubation, CellTiter Glo; read-out: NIH/3T3 FGFR3 V555M-TACC3 CTG. On the procedure: NIH/3T3 FGFR3 V555M-TACC3 Cell Proliferation Assay
as §1, with “V555M-TACC3” for “WT-TACC3”

The structures appear in SMILES notation. Where a name gives a salt, the structure may show the parent alone.

T4 sequence (P22607 whole entry V555M, the tested form may be a part): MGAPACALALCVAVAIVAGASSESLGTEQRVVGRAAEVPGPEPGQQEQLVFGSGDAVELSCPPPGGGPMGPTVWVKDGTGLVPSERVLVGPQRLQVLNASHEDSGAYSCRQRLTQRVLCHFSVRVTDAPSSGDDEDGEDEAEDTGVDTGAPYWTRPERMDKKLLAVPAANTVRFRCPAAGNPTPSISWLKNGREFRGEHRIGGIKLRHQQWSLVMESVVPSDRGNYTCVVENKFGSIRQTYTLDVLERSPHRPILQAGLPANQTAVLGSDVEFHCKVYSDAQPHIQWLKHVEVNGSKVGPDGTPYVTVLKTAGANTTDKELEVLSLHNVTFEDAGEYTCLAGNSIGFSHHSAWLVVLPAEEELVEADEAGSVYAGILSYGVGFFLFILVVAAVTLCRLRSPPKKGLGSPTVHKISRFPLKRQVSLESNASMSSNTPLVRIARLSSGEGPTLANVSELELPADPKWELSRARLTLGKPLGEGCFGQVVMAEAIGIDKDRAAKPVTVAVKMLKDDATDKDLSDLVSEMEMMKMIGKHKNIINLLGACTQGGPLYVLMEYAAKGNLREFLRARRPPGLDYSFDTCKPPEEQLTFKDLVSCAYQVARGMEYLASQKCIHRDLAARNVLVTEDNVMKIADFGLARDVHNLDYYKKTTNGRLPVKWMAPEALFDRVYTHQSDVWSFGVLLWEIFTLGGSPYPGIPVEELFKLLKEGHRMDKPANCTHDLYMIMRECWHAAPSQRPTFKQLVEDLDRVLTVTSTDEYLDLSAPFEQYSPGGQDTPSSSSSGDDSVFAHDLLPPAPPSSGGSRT
T1 sequence (P22607 whole entry, change not shown, the tested form may be a part): as the sequence (P22607 whole entry V555M, the tested form may be a part) above, with M555V counted along it
T2 sequence (P22607 397-806 limits assumed): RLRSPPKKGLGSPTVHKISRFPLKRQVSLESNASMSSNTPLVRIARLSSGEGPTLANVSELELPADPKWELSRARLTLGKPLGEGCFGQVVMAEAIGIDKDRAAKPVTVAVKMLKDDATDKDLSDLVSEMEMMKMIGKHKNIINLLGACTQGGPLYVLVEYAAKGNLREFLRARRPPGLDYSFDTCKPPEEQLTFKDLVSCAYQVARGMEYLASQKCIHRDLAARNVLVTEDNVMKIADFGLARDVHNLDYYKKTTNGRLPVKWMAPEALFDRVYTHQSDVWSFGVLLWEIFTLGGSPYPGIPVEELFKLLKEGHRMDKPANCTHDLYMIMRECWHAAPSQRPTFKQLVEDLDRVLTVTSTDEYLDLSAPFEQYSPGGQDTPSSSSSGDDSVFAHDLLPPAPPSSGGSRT
T3 sequence (P22607 397-806 V555M limits assumed): as the sequence (P22607 397-806 limits assumed) above, with V159M counted along it

For the molecule `COCC(Nc1c(-c2nc3cnc(N4C[C@@H](C)O[C@@H](C)C4)cc3[nH]2)c(=O)[nH]c2ccsc12)c1ncccn1` (single isomer, unassigned) [Compound 7, (S*)-6-(6-(cis-2,6-dimethylmorpholino)-1H-imidazo[4,5-c]pyridin-2-yl)-7-((2-methoxy-1-(pyrimidin-2-yl)ethyl)amino)thieno[3,2-b]pyridin-5(4H)-one], the GI50 in experiment [1] is 486 nM; in experiment [5] it was 284 nM. Also, the results for the IC50 in experiment [2], in experiment [3] and in experiment [4] were 35.5 nM, 2.34 nM and 3050 nM, respectively.
For `COCC(Nc1c(-c2nc3cnc(N4C[C@@H](C)O[C@@H](C)C4)cc3[nH]2)c(=O)[nH]c2ccsc12)c1ncccn1` (single isomer, unassigned) [Compound 8, (R*)-6-(6-(cis-2,6-dimethylmorpholino)-1H-imidazo[4,5-c]pyridin-2-yl)-7-((2-methoxy-1-(pyrimidin-2-yl)ethyl)amino)thieno[3,2-b]pyridin-5(4H)-one], the IC50 in experiment [2] was 28.6 nM; in experiment [3] it was 9.42 nM.
Taken in the same sequence, the figures for `C[C@@H](Nc1c(-c2nc3cnc(N4CCOCC4)cc3[nH]2)c(=O)[nH]c2ccsc12)c1ncccn1` [Compound 3, (R)-6-(6-Morpholino-1H-imidazo[4,5-c]pyridin-2-yl)-7-((1-(pyrimidin-2-yl)ethyl)amino)-thieno[3,2-b]pyridin-5(4H)-one] were 21.2 nM and 2.74 nM.
For the molecule `C[C@H](Nc1c(-c2nc3cnc(N4CCN(C)CC4)cc3[nH]2)c(=O)[nH]c2ccsc12)c1ncccn1` [Compound 5, (S)-6-(6-(4-methylpiperazin-1-yl)-1H-imidazo[4,5-c]pyridin-2-yl)-7-((1-(pyrimidin-2-yl)-ethyl)amino)thieno[3,2-b]pyridin-5(4H)-one], the GI50 turned out to be 2.1 nM in experiment [1] and 4.64 nM in experiment [5]. For the same molecule, the IC50 in experiment [2] turned out to be 0.14 nM; in experiment [3] it was 0.13 nM; in experiment [4], 571 nM.
In the case of `COC[C@H](Nc1c(-c2nc3ccc(N4C[C@@H](C)O[C@@H](C)C4)nc3[nH]2)c(=O)[nH]c2ccsc12)c1ncccn1` (single isomer, unassigned) [Compound 11, (R*)-6-(5-(cis-2,6-dimethylmorpholino)-3H-imidazo[4,5-b]pyridin-2-yl)-7-(((R*)-2-methoxy-1-(pyrimidin-2-yl)ethyl)amino)thieno[3,2-b]pyridin-5(4H)-one], the GI50 in experiment [1] was found to be 101 nM; in experiment [5] it was 91.1 nM. Further, the IC50 worked out at 8.73 nM in experiment [2], 0.93 nM in experiment [3] and 3200 nM in experiment [4].
For the molecule `COC[C@@H](Nc1c(-c2nc3ccc(N4C[C@@H](C)O[C@@H](C)C4)nc3[nH]2)c(=O)[nH]c2ccsc12)c1ncccn1` (single isomer, unassigned) [Compound 10, (S*)-6-(5-(cis-2,6-dimethylmorpholino)-3H-imidazo[4,5-b]pyridin-2-yl)-7-(((S*)-2-methoxy-1-(pyrimidin-2-yl)ethyl)amino)thieno[3,2-b]pyridin-5(4H)-one], the results for the IC50 in experiment [2] and in experiment [3] were 290 nM and 119 nM, respectively.
`CC(C)[C@H](Nc1c(-c2nc3cnc(N4CCN(C)CC4)cc3[nH]2)c(=O)[nH]c2ccsc12)c1ncccn1` (single isomer, unassigned) [Compound 12, (S*)-7-((2-methyl-1-(pyrimidin-2-yl)propyl)amino)-6-(6-(4-methylpiperazin-1-yl)-1H-imidazo[4,5-c]pyridin-2-yl)thieno[3,2-b]pyridin-5(4H)-one 0.6 formate]: the GI50 in experiment [1] was found to be 3.82 nM; in experiment [5], 5.02 nM. The figures for the IC50 in experiment [2], in experiment [3] and in experiment [4] were 0.24 nM, 0.33 nM and 482 nM, respectively.
